Active and inactive are the calls of the source.
How the values were obtained:
[1] = test system: Streptococcus sp. 'group A'; assay: growth inhibition of control SK(-) GAS strain, dose response, counter-screen for streptokinase expression inhibitor project, luminescence, kanamycin, BacTiterGlo, confirmation (AID 1900); format: functional, organism-based
[2] = A Cell Based Secondary Assay To Explore Cytotoxicity of Compounds that Sensitize Mycobacterium Tuberculosis to Beta-Lactam Antibiotics.; format: functional
Streptococcus = assay: Group A Streptococcus viability loss, dose response, counter-screen for streptokinase expression inhibitor project, luminescence, BacTiterGlo (AID 1915); format: functional, organism-based;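 note: potency for reduction of bacterial viability or growth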
Streptokinase A = target: T1, Streptokinase A (Streptococcus pyogenes serotype M1, UniProt P10520); assay: S. pyogenes streptokinase expression inhibitors, potency, dose response, plasminogen activation absorbance, OD405 (AID 1914); format: functional, Streptococcus pyogenes M1 GAS;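 note: secreted streptokinase activity via plasminogen activation per viability signal from cell pellet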
T1 sequence (P10520 whole entry): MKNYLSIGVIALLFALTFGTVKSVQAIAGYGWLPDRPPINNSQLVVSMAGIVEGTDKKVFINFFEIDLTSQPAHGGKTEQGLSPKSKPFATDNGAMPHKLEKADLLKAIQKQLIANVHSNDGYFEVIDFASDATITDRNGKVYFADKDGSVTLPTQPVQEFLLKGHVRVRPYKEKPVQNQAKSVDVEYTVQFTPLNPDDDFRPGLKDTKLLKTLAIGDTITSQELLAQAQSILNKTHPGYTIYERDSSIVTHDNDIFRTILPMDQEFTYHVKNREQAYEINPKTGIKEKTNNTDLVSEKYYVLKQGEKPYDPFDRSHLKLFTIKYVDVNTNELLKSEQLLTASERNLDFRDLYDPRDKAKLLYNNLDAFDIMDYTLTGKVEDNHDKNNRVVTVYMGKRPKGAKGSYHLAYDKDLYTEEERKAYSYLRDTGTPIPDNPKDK

[3] = cytotoxicity in HEK-293T cells, dose response, cytotoxicity control for BCR NF-kB inhibitor project, luminescence, B-cell screen hits (AID 489021); format: functional, cell-based;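 note: HEK-293T cells carrying an NF-kB luciferase reporter; cells exposed to compound for about 14 hours before viability readout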
Cytochrome P450 3A4 = Cytochrome P450 3A4 (Homo sapiens, UniProt P08684); conditions: Potency;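 note: confirmatory qHTS run detecting inhibitors and substrates of CYP3A4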
Chain of Cytochrome P450 3A4 (P08684 whole entry): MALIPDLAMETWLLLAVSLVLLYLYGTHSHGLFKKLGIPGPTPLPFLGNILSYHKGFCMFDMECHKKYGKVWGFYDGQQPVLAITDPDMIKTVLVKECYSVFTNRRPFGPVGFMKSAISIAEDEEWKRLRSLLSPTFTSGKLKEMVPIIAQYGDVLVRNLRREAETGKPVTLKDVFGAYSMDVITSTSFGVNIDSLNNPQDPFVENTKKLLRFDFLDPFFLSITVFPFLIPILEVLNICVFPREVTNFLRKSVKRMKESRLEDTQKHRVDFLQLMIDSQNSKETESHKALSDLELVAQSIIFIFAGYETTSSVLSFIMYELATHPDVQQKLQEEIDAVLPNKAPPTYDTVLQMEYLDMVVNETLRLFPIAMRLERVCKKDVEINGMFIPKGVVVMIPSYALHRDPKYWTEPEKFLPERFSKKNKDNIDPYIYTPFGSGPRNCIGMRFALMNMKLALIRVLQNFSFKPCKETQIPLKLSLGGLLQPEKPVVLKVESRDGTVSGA

Cytochrome P450 1A2 = target: T2, Cytochrome P450 1A2 (Homo sapiens, UniProt P05177);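 note: PubChem cytochrome P450 panel assay, CYP1A2 panel member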
T2 sequence (P05177 whole entry): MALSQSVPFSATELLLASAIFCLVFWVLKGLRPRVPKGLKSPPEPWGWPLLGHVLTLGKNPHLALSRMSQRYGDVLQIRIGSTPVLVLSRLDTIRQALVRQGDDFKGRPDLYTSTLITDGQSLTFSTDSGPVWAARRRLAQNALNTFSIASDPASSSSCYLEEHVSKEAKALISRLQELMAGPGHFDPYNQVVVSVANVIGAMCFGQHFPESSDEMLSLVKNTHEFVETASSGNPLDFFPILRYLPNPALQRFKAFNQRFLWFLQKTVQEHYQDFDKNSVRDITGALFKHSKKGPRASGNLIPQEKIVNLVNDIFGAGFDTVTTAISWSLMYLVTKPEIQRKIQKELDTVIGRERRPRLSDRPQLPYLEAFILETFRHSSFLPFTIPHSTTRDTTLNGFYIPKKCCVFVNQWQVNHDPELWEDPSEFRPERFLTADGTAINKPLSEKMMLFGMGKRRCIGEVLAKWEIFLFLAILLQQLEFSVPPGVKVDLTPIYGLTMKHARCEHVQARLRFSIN

[4] = cytotoxicity toward NIH3T3 fibroblasts, dose response, counter-screen, cell-based, ATP luminescence, mouse fibroblasts (AID 2010); format: functional;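 note: cells exposed to compound for about 90 hours before reading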
[5] = growth suppression of PTEN-null colon cells, dose response, cell-based, HCT116 PTEN knockout (AID 1047); format: functional;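 note: HCT116 colon tumor cells with PTEN knocked out; cells exposed to compound for 60 hours before readout; potency for loss of cell viability measured by luminescence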
[6] = inhibitors of intracellular T. cruzi replication, confirmation, NIH3T3 host cells, beta-gal luminescence (AID 2044); format: functional, cell-based;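 note: intracellular parasites grown in NIH/3T3 mouse fibroblasts as host cells; luminescent beta-galactosidase reporter signal from transgenic T. cruzi replicating inside host cells; inhibitors lower the luminescence signal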
[7] = growth suppression of beta-catenin-knockout colon cells, dose response, cell-based, HCT116, human colon tumor (AID 1045); format: functional;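 note: HCT116 colon tumor cells with beta catenin knocked out; cells exposed to compound for 60 hours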
[8] = target: DNA dC->dU-editing enzyme APOBEC-3G (Homo sapiens, UniProt Q9HC16); assay: Dose Response confirmation of small molecule APOBEC3G DNA Deaminase Inhibitors via a fluorescence-based single-stranded DNA deaminase assay. [Related pubchem assays (depositor defined):AID493012, AID493028]; format: functional
Chain of DNA dC->dU-editing enzyme APOBEC-3G (Q9HC16 whole entry): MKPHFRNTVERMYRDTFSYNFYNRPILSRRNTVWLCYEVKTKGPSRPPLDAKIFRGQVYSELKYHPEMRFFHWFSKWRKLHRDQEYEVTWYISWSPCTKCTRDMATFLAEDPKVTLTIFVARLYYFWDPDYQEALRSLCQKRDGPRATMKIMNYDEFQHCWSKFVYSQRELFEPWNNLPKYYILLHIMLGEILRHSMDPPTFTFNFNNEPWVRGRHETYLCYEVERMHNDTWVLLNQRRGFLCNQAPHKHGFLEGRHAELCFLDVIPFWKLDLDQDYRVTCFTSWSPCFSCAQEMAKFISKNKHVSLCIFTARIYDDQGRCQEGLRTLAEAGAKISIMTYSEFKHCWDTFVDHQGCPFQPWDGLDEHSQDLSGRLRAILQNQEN

HT-1080 = assay: cytotoxicity in HT1080 fibrosarcoma cells, cell-based, fluorescence readout (AID 620); format: functional; conditions: Homo sapiens
[9] = target: Luciferin 4-monooxygenase (Photinus pyralis, UniProt P08659); assay: Counter Screen for Luciferase-based Assay Positives. [Related pubchem assays: 620, 618, 411 ]
Chain of Luciferin 4-monooxygenase (P08659 whole entry): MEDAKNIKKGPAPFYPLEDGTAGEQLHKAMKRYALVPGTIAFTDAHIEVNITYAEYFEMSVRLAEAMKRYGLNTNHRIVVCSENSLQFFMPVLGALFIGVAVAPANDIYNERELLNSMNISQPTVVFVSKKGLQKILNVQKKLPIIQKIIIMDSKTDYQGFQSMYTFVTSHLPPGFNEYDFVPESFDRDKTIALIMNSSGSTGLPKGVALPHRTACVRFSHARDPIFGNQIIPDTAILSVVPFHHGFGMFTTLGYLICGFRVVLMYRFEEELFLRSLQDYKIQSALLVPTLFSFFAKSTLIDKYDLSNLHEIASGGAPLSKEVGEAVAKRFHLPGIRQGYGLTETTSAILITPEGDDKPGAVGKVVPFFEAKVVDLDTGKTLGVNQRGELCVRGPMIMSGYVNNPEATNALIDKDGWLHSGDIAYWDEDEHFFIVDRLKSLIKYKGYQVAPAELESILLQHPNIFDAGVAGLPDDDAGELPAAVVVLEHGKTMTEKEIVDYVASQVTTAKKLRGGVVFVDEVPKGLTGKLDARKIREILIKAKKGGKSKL

[10] = target: T3, Zinc finger protein mex-5 (Caenorhabditis elegans, UniProt Q9XUB2); assay: MEX-5/TCR-2 RNA interaction inhibitors, dose response, biochemical, C. elegans, fluorescence polarization (AID 1960)
T3 sequence (Q9XUB2 whole entry): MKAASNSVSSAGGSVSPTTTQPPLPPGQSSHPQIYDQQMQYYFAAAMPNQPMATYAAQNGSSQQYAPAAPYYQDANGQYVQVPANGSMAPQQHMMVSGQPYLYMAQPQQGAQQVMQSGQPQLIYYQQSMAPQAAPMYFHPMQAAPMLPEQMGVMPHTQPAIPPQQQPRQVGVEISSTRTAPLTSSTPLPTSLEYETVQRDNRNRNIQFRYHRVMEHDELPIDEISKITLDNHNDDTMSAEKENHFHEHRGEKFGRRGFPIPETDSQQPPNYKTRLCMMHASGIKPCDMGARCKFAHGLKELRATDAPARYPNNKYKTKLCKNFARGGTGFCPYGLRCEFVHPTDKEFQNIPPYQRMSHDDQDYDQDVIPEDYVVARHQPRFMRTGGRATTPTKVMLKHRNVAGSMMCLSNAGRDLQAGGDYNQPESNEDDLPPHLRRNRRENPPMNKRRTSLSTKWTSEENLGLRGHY

[11] = target: T4, Polyadenylate-binding protein 1 (Homo sapiens, UniProt P11940); assay: PABP1 MLLE–PAM2 interaction inhibitors, dose response, miRNA deadenylation inhibitor project, biochemical, fluorescence polarization, Cy5-PAM2 peptide, secondary (AID 602260); format: functional; conditions: read-out: IC50_Mean
T4 sequence (P11940 whole entry, the tested form may be a part): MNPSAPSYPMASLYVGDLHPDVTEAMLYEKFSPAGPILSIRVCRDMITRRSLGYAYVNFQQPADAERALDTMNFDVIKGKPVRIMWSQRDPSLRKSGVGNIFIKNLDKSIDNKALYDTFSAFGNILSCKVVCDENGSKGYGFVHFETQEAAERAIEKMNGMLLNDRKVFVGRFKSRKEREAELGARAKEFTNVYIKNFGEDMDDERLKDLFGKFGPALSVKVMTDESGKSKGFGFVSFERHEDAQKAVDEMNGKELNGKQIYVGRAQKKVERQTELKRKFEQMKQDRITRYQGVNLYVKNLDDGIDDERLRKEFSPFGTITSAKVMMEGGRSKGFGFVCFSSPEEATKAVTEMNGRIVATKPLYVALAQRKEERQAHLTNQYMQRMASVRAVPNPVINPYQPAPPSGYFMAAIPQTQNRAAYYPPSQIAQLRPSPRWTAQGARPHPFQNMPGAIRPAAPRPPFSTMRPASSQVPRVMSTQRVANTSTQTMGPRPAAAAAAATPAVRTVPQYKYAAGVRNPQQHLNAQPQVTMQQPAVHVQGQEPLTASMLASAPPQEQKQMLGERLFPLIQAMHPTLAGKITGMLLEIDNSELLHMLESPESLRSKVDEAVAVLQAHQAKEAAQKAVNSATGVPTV

[12] = target: T5, RNA-binding protein pos-1 (Caenorhabditis elegans, UniProt G5EF15); assay: inhibitors of POS-1/mex-3 RNA binding, dose response, biochemical, fluorescence polarization (AID 1964);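 note: purified POS-1 fused to maltose binding protein made in E. coli; potency of compounds blocking POS-1 binding to fluorescent RNA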
T5 sequence (G5EF15 whole entry): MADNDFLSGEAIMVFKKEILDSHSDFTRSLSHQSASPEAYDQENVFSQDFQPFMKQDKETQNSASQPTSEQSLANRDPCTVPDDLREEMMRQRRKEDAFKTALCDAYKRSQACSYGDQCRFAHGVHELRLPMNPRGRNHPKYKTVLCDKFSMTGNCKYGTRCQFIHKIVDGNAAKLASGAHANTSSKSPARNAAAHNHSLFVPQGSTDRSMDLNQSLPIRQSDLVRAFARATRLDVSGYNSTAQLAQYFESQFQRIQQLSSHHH

[13] = target: T4, Polyadenylate-binding protein 1; assay: PABP1 MLLE–PAM2 binding inhibitor potency, dose response, biochemical, fluorescence polarization, FITC-PAM2 peptide (AID 602259); format: functional; conditions: read-out: IC50_Mean
Genome polyprotein = Genome polyprotein (dengue virus type 2, UniProt P29990); assay: Dengue-2 NS5 methyltransferase inhibitors, primary screen, biochemical, confirmation dose response (AID 588689); format: functional
Chain of Genome polyprotein (P29990 2492-3391 limits assumed): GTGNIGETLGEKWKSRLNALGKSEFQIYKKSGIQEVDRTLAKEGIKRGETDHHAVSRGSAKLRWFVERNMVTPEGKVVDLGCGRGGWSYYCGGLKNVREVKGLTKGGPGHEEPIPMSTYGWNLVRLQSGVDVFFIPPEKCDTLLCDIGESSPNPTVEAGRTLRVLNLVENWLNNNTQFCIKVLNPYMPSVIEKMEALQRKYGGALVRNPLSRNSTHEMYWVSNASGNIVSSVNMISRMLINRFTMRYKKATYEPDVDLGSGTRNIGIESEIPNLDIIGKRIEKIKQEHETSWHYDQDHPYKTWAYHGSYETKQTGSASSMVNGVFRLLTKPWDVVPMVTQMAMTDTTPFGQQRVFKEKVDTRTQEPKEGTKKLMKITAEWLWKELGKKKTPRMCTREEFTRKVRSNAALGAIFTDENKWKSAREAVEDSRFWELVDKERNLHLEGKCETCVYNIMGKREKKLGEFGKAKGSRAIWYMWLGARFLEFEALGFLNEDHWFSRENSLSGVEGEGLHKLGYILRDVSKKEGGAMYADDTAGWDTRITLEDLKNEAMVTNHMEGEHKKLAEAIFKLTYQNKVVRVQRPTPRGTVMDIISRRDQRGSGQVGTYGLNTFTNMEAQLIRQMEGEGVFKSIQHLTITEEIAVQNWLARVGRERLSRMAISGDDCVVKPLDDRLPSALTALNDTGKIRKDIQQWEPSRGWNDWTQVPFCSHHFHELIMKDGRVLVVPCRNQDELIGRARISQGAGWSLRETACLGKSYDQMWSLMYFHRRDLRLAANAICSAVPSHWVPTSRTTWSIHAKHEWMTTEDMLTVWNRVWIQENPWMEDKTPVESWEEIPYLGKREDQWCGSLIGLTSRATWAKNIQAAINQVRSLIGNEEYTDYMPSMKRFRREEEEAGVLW

Estrogen receptor = target: T6, Estrogen receptor (Homo sapiens, UniProt P03372);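 note: potency for inhibiting coactivator peptide recruitment to the receptor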
T6 sequence (P03372 whole entry): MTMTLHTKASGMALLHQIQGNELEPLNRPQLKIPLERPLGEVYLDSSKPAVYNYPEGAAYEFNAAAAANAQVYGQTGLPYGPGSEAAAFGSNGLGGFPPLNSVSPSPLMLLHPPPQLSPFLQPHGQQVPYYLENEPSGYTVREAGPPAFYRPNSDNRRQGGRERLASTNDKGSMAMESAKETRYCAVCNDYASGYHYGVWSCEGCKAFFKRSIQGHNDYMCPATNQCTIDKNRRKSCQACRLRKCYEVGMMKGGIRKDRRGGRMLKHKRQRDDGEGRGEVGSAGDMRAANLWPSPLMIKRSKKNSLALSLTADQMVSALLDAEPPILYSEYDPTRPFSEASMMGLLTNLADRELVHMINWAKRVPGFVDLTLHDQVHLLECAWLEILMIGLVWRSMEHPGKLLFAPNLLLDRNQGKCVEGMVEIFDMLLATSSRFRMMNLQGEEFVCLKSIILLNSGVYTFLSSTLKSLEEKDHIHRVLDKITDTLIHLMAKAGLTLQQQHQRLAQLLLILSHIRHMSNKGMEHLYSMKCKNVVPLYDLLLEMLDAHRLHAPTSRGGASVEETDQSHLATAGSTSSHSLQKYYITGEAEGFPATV

[14] = target: Induced myeloid leukemia cell differentiation protein Mcl-1 (Homo sapiens, UniProt Q07820); format: functional
Chain of Induced myeloid leukemia cell differentiation protein Mcl-1 (Q07820 whole entry): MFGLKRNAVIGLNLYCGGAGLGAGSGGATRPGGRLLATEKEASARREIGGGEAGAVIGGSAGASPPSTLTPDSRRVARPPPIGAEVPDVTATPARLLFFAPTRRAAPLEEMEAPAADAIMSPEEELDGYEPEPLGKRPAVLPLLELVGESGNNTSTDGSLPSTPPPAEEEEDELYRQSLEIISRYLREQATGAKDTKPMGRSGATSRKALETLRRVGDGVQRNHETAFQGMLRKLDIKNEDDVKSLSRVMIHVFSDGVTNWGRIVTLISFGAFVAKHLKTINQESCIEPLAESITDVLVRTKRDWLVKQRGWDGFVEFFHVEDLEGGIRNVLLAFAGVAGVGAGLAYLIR

Estrogen receptor beta = Estrogen receptor beta (Homo sapiens, UniProt Q92731); assay: ERβ–SRC-3 coactivator interaction inhibitors, confirmation, orthogonal assay, biochemical, ELISA, streptavidin-HRP readout (AID 1060)
Chain of Estrogen receptor beta (Q92731 whole entry): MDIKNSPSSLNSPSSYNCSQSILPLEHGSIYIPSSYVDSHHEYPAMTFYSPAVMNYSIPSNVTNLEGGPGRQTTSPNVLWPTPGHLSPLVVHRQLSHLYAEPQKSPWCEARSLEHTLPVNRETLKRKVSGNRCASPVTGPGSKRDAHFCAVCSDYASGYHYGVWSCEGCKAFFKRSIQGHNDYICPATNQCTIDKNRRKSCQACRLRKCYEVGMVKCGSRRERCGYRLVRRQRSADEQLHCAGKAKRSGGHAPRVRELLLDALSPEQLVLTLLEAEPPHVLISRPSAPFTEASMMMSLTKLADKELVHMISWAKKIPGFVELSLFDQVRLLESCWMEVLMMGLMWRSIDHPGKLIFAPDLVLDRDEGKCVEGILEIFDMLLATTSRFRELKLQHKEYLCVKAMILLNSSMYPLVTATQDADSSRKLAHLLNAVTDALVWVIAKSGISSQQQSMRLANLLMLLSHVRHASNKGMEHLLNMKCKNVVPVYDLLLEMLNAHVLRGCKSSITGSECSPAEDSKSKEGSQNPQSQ

CC1(C)CN=C(Nc2nc3ccccc3s2)S1
EC50 [1]: 15.3 µM (active)
CC50 [2]: > 40 µM (active)
EC50 (Streptococcus): > 150 µM (not active)
EC50 (Streptokinase A): > 150 µM (not active)

CC(C)CCNC(=O)CCCOc1cc(=O)n(C)c2ccccc12
IC50 [3]: > 80 µM (inactive)

COc1cccc(C2C(C)CCC3C(=O)N(C)C(C(C)C)C(=O)N32)c1 (centres undefined)
AC50 (Cytochrome P450 3A4): 2 µM (inconclusive)

O=C(CN(Cc1ccco1)C(=O)c1cccc(Cl)c1)Nc1c(Cl)cc(Cl)cc1Cl
AC50 (Cytochrome P450 1A2): 12.6 µM (inconclusive)
CC50 [2]: 24 µM (active)

Cc1nn(Cc2ccc(Cl)cc2)c(C)c1NC(=O)CSc1nc2c(c(C(F)(F)F)n1)CCc1ccccc1-2
EC50 [4]: > 60 µM (not active)
EC50 [5]: 12.8 µM (active)
EC50 [6]: 1.72 µM (active)
CC50 [2]: 29 µM (active)
EC50 [7]: 14 µM (active)

CC(=O)OCC1=C(C(=O)O)N2C(=O)C(NC(=O)Cc3cccs3)C2SC1 (centres undefined)
AC50 (Cytochrome P450 3A4): 31.6 µM (inconclusive)

CC(C)CC(C)Nc1ccc(Nc2ccccc2)cc1 (centres undefined)
AC50 (Cytochrome P450 3A4): 25.1 µM (inconclusive)

CCCC(C)c1nnc(NC(=O)CCS(=O)(=O)c2ccccc2)s1 (centres undefined)
IC50 [8]: 32.2 µM (active)

O=C(O)COc1ccc(-c2nccc(-c3ccccn3)n2)cc1
IC50 [3]: > 80 µM (inactive)

Cc1cccc(C(=O)N2CCN(C(=O)c3cccc(C)c3)C(C)C2)c1 (centres undefined)
EC50 (HT-1080): > 50 µM (not active)
EC50 [9]: 10.6 µM (active)

CC(C)(C)c1ccc(OCC(O)CSc2nnc[nH]2)cc1 (centres undefined)
EC50 [9]: 1.29 µM (active)

CC(C)(C)C(=O)N1CCc2cc(-c3csc(N)n3)ccc21
EC50 (HT-1080): > 50 µM (not active)
EC50 [9]: 9.92 µM (active)

CCCc1nc2c(C)cc(-c3nc4ccccc4n3C)cc2n1Cc1ccc(-c2ccccc2C(=O)O)cc1
IC50 [3]: > 80 µM (inactive)

Brc1ccccc1-c1nc(-c2ccccc2)no1
EC50 (HT-1080): > 50 µM (not active)
EC50 [9]: 5.42 µM (active)

COC(=O)C1OC(=O)C2O[C@@]23[C@]2(C)C(OC(C)=O)CC4C(C)(C)C(=O)CC[C@]4(C)C2CC[C@@]13C (some centres undefined)
AC50 (Cytochrome P450 3A4): 39.8 µM (inconclusive)

O=C(NCCO)c1ccc2nc(-c3ccco3)c(-c3ccco3)nc2c1
EC50 [10]: 17.5 µM (active)
IC50 [11]: > 66 µM (inactive)
EC50 [12]: > 300 µM (not active)
IC50 [13]: > 66 µM (inactive)
IC50 (Genome polyprotein): 67.7 µM (active)
IC50 (Estrogen receptor): > 50 µM (not active)
IC50 [14]: < 0.4 µM (active)
IC50 (Estrogen receptor beta): 11.4 µM (not active)
